Results: US5547958A, “N-(8α-ergolinyl)-amides” (Schering Aktiengesellschaft, priority 1989, dated 1996)

Tested on: behavior stereotypes on rats (masticatory, licking, or gnawing movements)
Test: Stereotype-releasing effectiveness on rats 1 hour after i.p. pretreatment (dopamine agonistic action)
Assay type: in vivo
Conditions: probit analysis, n = 8; for ED50 (effective dose, stereotype-releasing effectiveness): 60th-62nd min p.i.
Description: The dopamine agonistic action was determined according to Horowski, R. and Wachtel, H. Eur. J. Pharmaz. col. 36: 373-383, 1976. One hour after i.p. pretreatment with test substance or vehicle, the presence of behavior stereotypes on rats (masticatory, licking, or gnawing movements) was determined for 2 minutes (60th-62nd min. p.i.).
Stereotype-releasing effectiveness on rats 1 hour
after i.p. pretreatment. Effective doses (ED50) with 95%
confidence limit were determined with the help of probit

Structure (SMILES)	ED50 (effective dose, stereotype-releasing effectiveness)	95% Confidence Limit of ED50
CCCN1CC(NC(=S)SC)C[C@@H]2c3cccc4[nH]c(C)c(c34)C[C@H]21 (stereo partly shown) [A, N(2-methyl-6-n-propyl-8ergolinyl)-dithiocarbamic acid methyl ester]	0.080	0.010-0.170
CCCN1CC(NC=S)C[C@@H]2c3cccc4[nH]c(C)c(c34)C[C@H]21 (stereo partly shown) [B, N(2-methyl-6-n-propyl-8ergolinyl)-thioformamide]	0.050	0.034-0.079
